In patent US11491126B2, “Method for reducing lung inflammation” (priority 2017, dated 2022):
Entries after “also recorded” stand apart in the source; their conditions may differ. Read-outs that look alike come from different tables or passages of the source.

What was measured:
P. aeruginosa biofilms = experiment: Biofilms in suspended drops of cystic fibrosis mucus treated with nebulised/aerosolised agents; assay type: cell-based, Pseudomonas aeruginosa; conditions: treated 5 min, incubated 16 hours; tobramycin 20 mg/ml, CaEDTA particles 10 mg/ml
Description: Drops of mucus (5 μl) were suspended from an inverted IBIDI cover slip and inoculated with 10^3 colony forming units (CFU), then incubated in a humidified environment at 35° C. for 72 hours to allow biofilm development. Drops were then treated for 5 min with either nebulised tobramycin (20 mg/ml), aerosolised CaEDTA particles (10 mg/ml), or both. Controls were treated with a 50/50 solution of nebulised 0.9% saline/water. Following treatment, the drops were incubated for 16 hours, then stained with BacLight LIVE/DEAD (1 μl), and fixed in paraformaldehyde vapour for 30 min. Biofilms were visualised using confocal microscopy.

[1] = tested on: Pseudomonas aeruginosa clinical strain; experiment: MIC of tobramycin for the clinical strain used for biofilms; assay type: cell-based; conditions: P. aeruginosa clinical strain
[2] = versus placebo
Description: A single centre, randomised, double blind, crossover study of cystic fibrosis subjects is carried out. Subjects are randomised for treatment with inhaled CaEDTA or saline (placebo) for two weeks.
Iron levels, inflammatory markers, MMP/TIMP and FEV1 are monitored as above. Myeloperoxidase activity is also assayed as a measure of neutrophilic inflammation as previously described (Gaggar et al., Eur Respir J. 2011 38(3): 721-727). 3-chlorotyrosine will be measured as a biomarker of the potent oxidant hypochlorous acid. Levels are measured using stable isotope dilution gas chromatography with mass spectrometry (Gaggar et al., Eur Respir J. 2011 38(3): 721-727). Protein carbonyls are measured as an indicator of reactive oxygen species (ROS) using a commercial immunoassay kit (Gaggar et al., Eur Respir J. 2011 38(3): 721-727).

[3] = Description: Subjects with CF who need treatment with dry powder tobramycin will be allocated into four cohorts and receive 112 mg dry powder twice a day for 28 days. In addition, Cohort 1 (patients >18 years) will receive ascending doses of dry powder CaEDTA (37.5 mg BID for 1 week; 75 mg BID for 2 weeks, 150 mg BID for 1 week). Cohort 2 (patients >18 years) will receive CaEDTA (37.5 mg BID for 1 week; 75 BID for 2 weeks; 75 mg QID for 1 week). Cohort 3 (patients 12-18 years) will receive CaEDTA (37.5 mg BID for 1 week; 75 mg BID for 2 weeks, 150 mg BID for 1 week. Finally, an observational cohort will receive tobramycin alone for 28 days.
Sputum samples will be collected weekly and assessed for markers of infection and inflammation. Bacteria will be monitored by sputum colony counts. As a measure of structural damage, levels of matrix metalloproteinases (MMPs) and tissue inhibitors of metalloproteinases (TIMPs) are measured using gelatin zymography and immunoassays, respectively, as previously described (Gaggar et al., Eur Respir J. 2011 38(3): 721-727; Garratt et al., Eur Respir J. 2015 46(2):384-94). The amount of iron in the sputum is quantified by ICP-MS as previously described (Hunter et al., MBio. 2013 4(4):1-8). The amount of iron-binding proteins is assessed using immunoassays. Myeloperoxidase activity are also assayed as a measure of neutrophilic inflammation as previously described (Gaggar et al., Eur Respir J. 2011 38(3): 721-727). 3-chlorotyrosine is measured as a biomarker of the potent oxidant hypochlorous acid. Levels are measured using stable isotope dilution gas chromatography with mass spectrometry (Gaggar et al., Eur Respir J. 2011 38(3): 721-727). Protein carbonyls are measured as an indicator of reactive oxygen species (ROS) using a commercial immunoassay kit (Gaggar et al., Eur Respir J. 2011 38(3): 721-727). Oxidative stress is assessed by measuring glutathione (GSSG and GSH) using immunoassays as previously described (Kettle et al., Eur Respir J. 2014 44(1):122-9). Gene expression of inflammatory and oxidative stress markers (e.g. IL-8, IL-6, TNFa) will also be monitored by Nanostring, and proteins will be measured by ELISA. Oxidative stress can also be measured via metabolites, such as molondialdehyde (colorimetric assay) or 8-isoprostane (ELISA). Iron will be measured by elemental analysis using laser ablation-inductively coupled plasma-mass spectrometry (LA-ICP-MS).

[4] = in vivo; cited from earlier work
[5] = tested on: Pseudomonas spp. (P. aeruginosa) in sputum
Description: Patients were monitored for a further four weeks, bringing the total study time to 10 weeks.

Lung epithelial cells = conditions: versus controls
Description: Lung epithelial cells are grown in tissue culture and inflammation induced by exposure to Fe(II) or excess oxygen. The cells are treated with CaEDTA (0, 1, 5, 10, 25, 50 mM) for 30 min, 1, 3, 24 and 48 hours.
Immunoassays are used to monitor the change in inflammatory markers, such as IL-6, IL-8, TNF-α, neutrophil elastase and others. Oxidative stress and toxicity is measured by assessing reduced glutathione (GSH) levels and apoptosis based on a TUNEL assay, both using commercial assay kits such as ThermoFisher Scientific's Glutathione Fluorescent Detection Kit and BioVision Inc's TUNEL DNA Gragmentation Assay Kit.

[6] = remark: listed apart in the source
Description: Subjects are then discharged and treatment continued twice a day for four weeks. Subjects are monitored for a further four weeks, bringing the total study time to 10 weeks. Sputum is collected by induction with nebulised 3% hypertonic saline at 8-10 L/min for ≥5 minutes. Samples is collected prior to treatment, and at 2, 6 and 10 weeks, processed according to the relevant protocol and stored at −80° C.
Expectorated sputum is stored in RNAlater®, total RNA is extracted using a Qiagen RNEasy® or similar extraction kit, converted into cDNA, and inflammatory markers monitored using qPCR as described by Sivaneson et al. (Mol Microbiol 79, 1353-1366) and quantified relative to known housekeeping genes, such as actin and/or GAPDH.
Expectorated sputum is frozen directly without processing and assayed for inflammatory markers as above. As a measure of structural damage, levels of matrix metalloproteinases (MMPs) and tissue inhibitors of metalloproteinases (TIMPs) are measured using gelatin zymography and immunoassays, respectively as previously described (Gaggar et al., Eur Respir J. 2011 38(3): 721-727; Garratt et al., Eur Respir J. 2015 46(2):384-94). The amount of iron in the sputum is quantified by ICP-MS as previously described (Hunter et al., MBio. 2013 4(4):1-8). The amount of iron-binding proteins is assessed using immunoassays. Oxidative stress is assessed by measuring glutathione (GSSG and GSH) using immunoassays as previously described (Kettle et al., Eur Respir J. 2014 44(1):122-9).

bacterial infections = conditions: inhaled EDTA alone; cited from earlier work
[7] = remark: listed apart in the source
Description: Following discharge, treatment was continued twice a day for four weeks. Subjects were monitored for a further four weeks, bringing the total study time to 10 weeks.
At each study visit, lung function was measured by spirometry. Data was recorded as the best of three attempts, and results were expressed as % predicted.

[8] = in vivo; cited from earlier work; remark: listed apart in the source
Remark: listed apart in the source
[9] = ten CF children, nebulised, three months; cited from earlier work
[10] = EDTA group versus placebo group

## NC[C@H]1O[C@H](O[C@H]2[C@H](O)[C@@H](O[C@H]3O[C@H](CO)[C@@H](O)[C@H](N)[C@H]3O)[C@H](N)C[C@@H]2N)[C@H](N)C[C@@H]1O [tobramycin]
P. aeruginosa biofilms
  biofilm viability / killing (BacLight LIVE/DEAD, confocal microscopy): little effect on viability
[1]
  MIC: > 256 µg/mL

## O=C(O)CN(CCN(CC(=O)O)CC(=O)O)CC(=O)O [EDTA, ethylene diamine tetraacetic acid]
[2]
  MMP/TIMP balance: altered MMP/TIMP balance
  inflammatory markers: reduced levels of iron and inflammatory markers
  iron levels: reduced levels of iron
  mean FEV1: increased mean FEV1
  mean levels of chlorotyrosine and carbonyls: lower mean levels of chlorotyrosine and carbonyls
  myeloperoxidase activity: reduced myeloperoxidase activity
[3]; [10]
  inflammatory markers in sputum: reduction in inflammatory markers
  iron levels in sputum: decrease in iron levels
[3]; especially MMP-9 and TIMP-1
  balance between MMPs and TIMPs: change in the balance between MMPs and TIMPs
[3]; versus control patients
  FEV1: increase in FEV1
  bacterial load in sputum: reduction of bacterial load in sputum
[4]
  bronchoconstriction: concentration-dependent bronchoconstriction
[5]; after two weeks of treatment, 300 mg EDTA/day with tobramycin, placebo 4.5-fold
  reduction in colony counts of P. aeruginosa (McC agar) versus start of treatment: > 400 fold
Lung epithelial cells; CaEDTA 0-50 mM, 30 min to 48 hours
  inflammatory markers (IL-6, IL-8, TNF-α, neutrophil elastase): concentration dependent reduction in inflammatory markers
Lung epithelial cells
  apoptosis (TUNEL assay): reduced apoptosis
  reduced glutathione (GSH) levels: reduction in GSH
[6]; [10]
  gene expression of inflammatory markers in sputum (qPCR): mean reduction in the gene expression of inflammatory markers
  inflammatory markers in sputum: reduction in inflammatory markers
[6]; especially MMP-9 and TIMP-1
  balance between MMPs and TIMPs: change in the balance between MMPs and TIMPs
P. aeruginosa biofilms
  biofilm viability / killing (BacLight LIVE/DEAD, confocal microscopy): some degree of killing; also recorded: kill P. aeruginosa biofilms and act synergistically with tobramycin
Bacterial infections
  treatment of bacterial infections: does not treat bacterial infections
[7]; after 2 weeks, 300 mg EDTA/day, placebo 5% points
  mean increase in FEV1: 16 % points
[7]; four weeks after the treatment had been completed (10 weeks), placebo 2% point
  increase in FEV1: 7 % points
[7]; mg EDTA/kg body weight
  effect on lung function: dose-dependent effect on lung function
[8]
  effect on FEV1: no effect on FEV1

## O=C([O-])CN(CCN(CC(=O)[O-])CC(=O)[O-])CC(=O)[O-].[Ca+2].[Na+].[Na+] [CaEDTA, CaNa2EDTA]
[5]; CF subjects, nebulised CaEDTA versus saline
  bacterial load in expectorated mucus: reduces the bacterial load in CF lungs faster than antibiotic treatment alone
5 minutes after 75 mg nebulised CaEDTA, CF subjects
  EDTA concentration in sputum: 0.41 to 1.34 mM
Single dose of 75 mg CaEDTA, after 30 minutes
  EDTA concentration inside mucus plugs: up to 1.34 mM

## sodium EDTA
[9]
  lung function: no change in lung function
